Reference: US20100086587A1, “HARD SHELL CAPSULE FORMULATIONS” (priority 2006, published 2010)

Assay: Moisture loss or gain of filled capsules exposed to a 50% RH environment until equilibrium
Format: physicochemical
Conditions: 50% R.H. environment
Protocol: An alternative method for evaluating the level of water required to provide a stable hygroscopic formulation involves the preparation of capsules containing different water contents and then quantifying moisture loss or gain when exposed to a 50% RH environment (middle of acceptable RH range for capsules 35% RH to 65% RH). Maltitol, a sugar which is also a hygroscopic excipient, was dissolved in water to produce several aqueous maltitol solutions of concentration 16, 18, 20, 22, 24, 26, 28, 30, 32, 34 and 36% water in maltitol. Both gelatin and HPMC capsules were filled with the various concentrations of solution and the capsules were sealed by banding. The capsules were then exposed to a 50% R.H environment and allowed the capsules to re-equilibrate.
Weight loss (and water loss) ceased when the capsules shell content was in equilibrium with the capsule shell and with the 50% R.H. environment. The equilibrium water content in maltitol that produced stables capsules was approximately 14% water content for gelatin capsules and approximately 13% water content for HPMC capsules.

## OC[C@@H](O)[C@@H](O[C@H]1O[C@H](CO)[C@@H](O)[C@H](O)[C@H]1O)[C@H](O)[C@@H](O)CO [maltitol, Maltitol]
HPMC capsules
  equilibrium water content in maltitol that produced stable capsules: approximately 13%
Gelatin capsules
  equilibrium water content in maltitol that produced stable capsules: approximately 14%
